One compound from ChEMBL document CHEMBL4118133, “Inhibitory effects of methyl-3,5-di-O-caffeoyl-epi-quinate on RANKL-induced osteoclast differentiation” (Bioorg Med Chem Lett, 2018) can be followed below.

Data set [1] relates to BMDM. The data set can be described thus: Inhibition of RANKL-induced ERK phosphorylation in ICR mouse BMDM at 5 uM preincubated for 1 hr followed by RANKL stimulation measured after 5 to 30 mins by Western blot method. The data set is classed as cell-based.
For data set [2], the target named is MAP kinase p38 (Mus musculus) (UniProt P47811+O08911+Q9WUI1+Q9Z1B7). The data set can be described thus: Inhibition of RANKL-induced p38 phosphorylation in ICR mouse BMDM at 5 uM preincubated for 1 hr followed by RANKL stimulation measured after 5 to 30 mins by Western blot method. The format is cell-based. A general note: In western blotting, separated proteins are transferred to a membrane and probed.

In data set [3] the test system is BMDM. The data set can be described thus: Inhibition of M-CSF/RANKL-induced osteoclast differentiation in ICR mouse BMDM at 5 to 10 uM after 4 days by TRAP staining method. The data set is classed as functional, cell-based.
Data set [4] deals with BMDM. The data set can be described thus: Inhibition of M-CSF/RANKL-induced osteoclast differentiation in ICR mouse BMDM assessed as decrease in number of cells with nuclear Nfatc1 at 5 uM by rhodamine-conjugated phalloidin/DAPI staining-based immunofluorescence method. The data set is classed as functional, cell-based.
The test system of data set [5] is BMDM. The data set can be described thus: Inhibition of RANKL-mediated decrease in Bcl6 mRNA expression in ICR mouse BMDM at 5 uM by qRT-PCR method. The data set is classed as functional, cell-based.
In data set [6] the test system is BMDM. In words: Inhibition of RANKL-mediated decrease in Mafb mRNA expression in ICR mouse BMDM at 5 uM by qRT-PCR method. The format is functional, cell-based.
Data set [7] concerns BMDM. The data set can be described thus: Inhibition of M-CSF/RANKL-induced osteoclast differentiation in ICR mouse BMDM assessed as downregulation of Acp5 mRNA expression at 5 uM by qRT-PCR method. The format is functional, cell-based. In general terms: Quantitative PCR measures a nucleic acid by following its amplification.
Data set [8] has as its system BMDM. The data set can be described thus: Inhibition of M-CSF/RANKL-induced osteoclast differentiation in ICR mouse BMDM assessed as downregulation of Nfatc1 mRNA expression at 5 uM by qRT-PCR method. The data set is classed as functional, cell-based.
For data set [9], the target named is RAC-alpha serine/threonine-protein kinase (Mus musculus) (UniProt P31750). In words: Inhibition of RANKL-induced AKT phosphorylation in ICR mouse BMDM at 5 uM preincubated for 1 hr followed by RANKL stimulation measured after 30 mins by Western blot method. The format is cell-based.
Data set [10] has as its system BMDM. In words: Inhibition of M-CSF/RANKL-induced osteoclast differentiation in ICR mouse BMDM assessed as downregulation of Dcstamp mRNA expression at 5 uM by qRT-PCR method. The format is functional, cell-based.
The test system of data set [11] is BMDM. The data set can be described thus: Inhibition of M-CSF/RANKL-induced osteoclast differentiation in ICR mouse BMDM assessed as downregulation of Ctsk mRNA expression at 5 uM by qRT-PCR method. The format is functional, cell-based.
Data set [12] concerns BMDM. The data set can be described thus: Inhibition of RANKL-mediated decrease in Irf8 mRNA expression in ICR mouse BMDM at 5 uM by qRT-PCR method. The data set is classed as functional, cell-based.
The subject of a further data set is Osteoclast. The data set can be described thus: Effect on bone-resorbing function of osteoclast derived from M-CSF/RANKL-induced ICR mouse BMDM assessed as change in size of resorption pit area at 5 uM after 2 days by hematoxylin staining-based assay. The format is functional, cell-based.
Data set [13] relates to BMDM. The data set can be described thus: Inhibition of M-CSF/RANKL-induced osteoclast differentiation in ICR mouse BMDM assessed as downregulation of Nfatc1 expression at 5 uM after 3 days by Western blot method. The data set is classed as functional, cell-based.
Data set [14] has as its system BMDM. In words: Inhibition of M-CSF/RANKL-induced osteoclast differentiation in ICR mouse BMDM at 1 uM after 4 days by TRAP staining method relative to control. The format is functional. Particulars: 96 h.
Data set [15] relates to BMDM. In words: Growth inhibition of ICR mouse BMDM up to 10 uM after 3 days by MTT assay. The format is cell-based. As to conditions: 72 h. For orientation: Formazan colour is commonly taken as a measure of viable cells.

Molecules are shown by their SMILES. The source made the active and inactive calls. The calls are words filed in the database; no cut-off is given here.

Sequence of RAC-alpha serine/threonine-protein kinase (Mus musculus) (P31750 whole entry): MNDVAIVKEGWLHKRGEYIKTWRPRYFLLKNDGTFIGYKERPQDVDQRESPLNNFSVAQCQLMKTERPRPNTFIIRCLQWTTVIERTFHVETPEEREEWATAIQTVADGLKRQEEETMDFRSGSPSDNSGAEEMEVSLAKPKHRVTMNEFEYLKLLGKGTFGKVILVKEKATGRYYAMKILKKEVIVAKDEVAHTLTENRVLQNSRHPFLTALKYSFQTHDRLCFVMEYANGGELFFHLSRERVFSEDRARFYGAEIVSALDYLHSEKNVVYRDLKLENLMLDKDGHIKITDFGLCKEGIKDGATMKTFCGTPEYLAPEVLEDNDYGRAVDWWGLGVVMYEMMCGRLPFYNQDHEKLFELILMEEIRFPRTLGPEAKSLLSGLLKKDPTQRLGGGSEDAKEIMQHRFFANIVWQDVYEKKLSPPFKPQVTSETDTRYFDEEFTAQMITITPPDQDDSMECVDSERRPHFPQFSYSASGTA

As a reminder, the inhibition is the percentage by which the read-out fell short of the control. Take `COC(=O)[C@]1(O)C[C@@H](OC(=O)/C=C/c2ccc(O)c(O)c2)[C@H](O)[C@H](OC(=O)/C=C/c2ccc(O)c(O)c2)C1`: the inhibition result (in the data set on BMDM [1]; in [2]; in the data set on BMDM [3]; in the data set with BMDM [4]; in the data set with BMDM [5]; in the data set with BMDM [6]) was “Active” each time. Besides, the inhibition result (in the data set with BMDM [7]; in the data set on BMDM [8]; in data set [9]; in the data set on BMDM [10]; in the data set with BMDM [11]; in the data set with BMDM [12]) was “Active” each time. Also, the inhibition entry with BMDM [13] is “Active”. Also, in the data set on Osteoclast, the result was inactive. In the data set with BMDM [14], this compound yielded an inhibition at 1 µM of 78%. The “growth inhibition (GI)” value in the data set on BMDM [15] is listed as “Non-Toxic”.
